In publication PMC12340956, “Tranylcypromine-Based LSD1 Inhibitors as Useful Agents to Reduce Viability of” (ACS Infectious Diseases, 2025):
Where a name gives a salt, the structure may show the parent alone. Read-outs that look alike come from different tables or passages of the source.

Columns and labels:
[1] = system: human recombinant LSD1-CoREST enzymatic complex; details: Table S1, cited from earlier work
[2] = system: newly transformed schistosomula (NTS); assay: NTS viability phenotypic screening, 72 h; details: for IC50: Schistosoma mansoni, read-out: IC50 (NTS viability)
[3] = biological target: T1, human LSD1-CoREST complex (Homo sapiens, UniProt O60341); assay: HRP-coupled LSD1 inhibition assay; assay type: biochemical; details: 10 min preincubation, read-out: IC50 (hLSD1 direct inhibition)
T1 construct: made in house
Experimental: Protein expression, thermal stability, and inhibition of human LSD1-CoREST were performed using established protocols. […] The reaction was initiated by adding an equal volume of the substrate solution to the enzyme–inhibitor mixture, and resorufin fluorescence (excitation at 530–570 nm and emission at 580–590 nm) was detected with a Clariostar plate reader.

[4] = biological target: T1, human LSD1-CoREST complex; assay: ThermoFAD thermal stability assay; assay type: binding; details: LSD1-CoREST thermal stability
Experimental: Compounds 14–22 were tested against the human LSD1-CoREST complex to determine their inhibitory activity. […] ThermoFAD assays were then performed to assess the impact of 14–22 on the thermal stability (ΔT m values, Table ) of the LSD1-CoREST complex. The most significant shifts in Tm values corresponded to the strongest binders. […] Compound 22 was not tested, considering its previous negative results.
Protein expression, thermal stability, and inhibition of human LSD1-CoREST were performed using established protocols. […] LSD1-CoREST (0.4 μM) was preincubated with the inhibitor at 25 °C for 10 min in the presence of 5% DMSO. The reaction was initiated by adding an equal volume of the substrate solution to the enzyme–inhibitor mixture, and resorufin fluorescence (excitation at 530–570 nm and emission at 580–590 nm) was detected with a Clariostar plate reader.

[5] = system: adult worms; assay: Pairing and egg laying of adult worms; assay type: cell-based, Schistosoma mansoni; details: for eggs' number: 20 μM
Experimental: Selected compounds 2, 15, 18, and 19 were tested on adult worms to evaluate their effects on pairing and egg laying.

[6] = system: NTS; assay: Speed-of-action assay in NTS; assay type: cell-based, Schistosoma mansoni; details: for Percentage of effect: NTS; for IC50: Schistosoma mansoni, read-out: IC50 (speed of action, NTS)
From the text: (§1) To better characterize a selection of our LSD1i in vitro, we assessed the onset of their action, defined as the time required for an observable antischistosomal effect. […] For detailed percentages of activity at each time point, refer to the Supporting Information (Tables S2 and S3 in Supporting Information).

[7] = system: adult worms; assay: Adult worm viability phenotypic assay, 72 h; details: Schistosoma mansoni, read-out: IC50 (adult worm viability)
[8] = system: S. mansoni juvenile forms; assay: Speed-of-action assay in juvenile forms; assay type: cell-based, Schistosoma mansoni; details: for IC50: Schistosoma mansoni, read-out: IC50 (speed of action, juvenile forms); for Percentage of effect: juvenile forms
From the text: as §1

[9] = MTT cytotoxicity in RPE cells; assay type: cell-based; details: human, retinal pigment epithelial (RPE) cells
Experimental: (§2) The MTT method was used to evaluate cell viability after 72 h of treatment.
(§3) Human commercial lung diploid fibroblasts (MRC-5), and diploid retinal epithelium cells (RPE) were obtained from the American Type Culture Collection (ATCC) and kindly provided by Dr Francesca Degrassi (CNR IBPM) and maintained in minimal essential medium or DMEM-F12 medium supplemented with fetal calf serum, antibiotics, and nonessential amino acids. Cells were grown at 37 °C, in a humidified atmosphere, with 5% CO2. For experiments, cells were seeded in 200 μL of complete in each well of a 96-well microtiter plate. After 24 h, compounds were added at 5, 10, 25, and 50 μM for 72 h in sextuplicate. MTT was added (0.5 mg/mL), incubated for 4 h at 37 °C, and dissolved in 200 μL of isopropyl alcohol. Absorbance was measured at 570 nm (ELISA reader, DASIT), and cell viability was calculated as viability=(ODoftreatedcells/ODofcontrolcells)×100

[10] = MTT cytotoxicity in MRC-5 cells; assay type: cell-based; details: human, MRC-5 lung diploid fibroblast cells
Experimental: as §2, §3

[11] = ref 2 (SI: Fioravanti et al., ChemMedChem 2020)
[12] = 5 μM, read-out: percentage of viability, 72 h
[13] = 10 μM, read-out: percentage of viability, 72 h
[14] = 25 μM, read-out: percentage of viability, 72 h
[15] = 50 μM, read-out: percentage of viability, 72 h
[16] = read-out: IC50 (cell viability)
[17] = ref 4 (SI: Rodriguez et al., MedChemComm 2015)

For `NC1CC1c1ccc(NC(=O)Cc2cccc3ccccc23)cc1` (stereo not shown) [Compound 8], the IC50 [1, 11] is listed as […], the “Percentage of reduction of NTS viability, 72 h” value (shortened to “Percentage of reduction … 72 h”) ([2]; 10 μM) is listed as 46.5 ± 2.6% and the “Percentage of reduction … 72 h” value ([2]; 20 μM) is listed as 50.0 ± 0.0%. The IC50 [2] was > 10 µM.
With `Cc1ccc(C(=O)Nc2ccc(C3CC3N)cc2)cc1.Cl` (stereo not shown) [Compound 14, N-(4-(2-Aminocyclopropyl)phenyl)-4-methylbenzamide Hydrochloride] the IC50 [3] was 0.15 ± 0.02 µM, the ΔTm [4] was “+8 °C” and the “Percentage of reduction … 72 h” value ([2]; 10 μM) was 22.9 ± 2.1%. For the same compound, the “Percentage of reduction … 72 h” value ([2]; 20 μM) was 41.7 ± 4.2% and the IC50 [2] was > 20 µM.
With `NC1CC1c1ccc(NC(=O)c2ccc(-c3ccccc3)cc2)cc1` (stereo not shown) [Compound 2] the “eggs' number” value ([5]; 4 h) was 0, the “eggs' number” value ([5]; 8 h) was 0 and the “eggs' number” value ([5]; 24 h) was 0. For the same compound, the “eggs' number” value ([5]; 48 h) was 0, the “eggs' number” value ([5]; 72 h) was 6 and the “effect on worm pairing” value ([5]; adult worms) was “no impact on worm pairing”. For the same compound, the IC50 [1, 11] was 0.05 ± 0.01 µM, the Percentage of effect ([6]; 4 h, 10 μM) was 30.77% and the Percentage of effect ([6]; 4 h, 20 μM) was 38.46%. For the same compound, the Percentage of effect ([6]; 24 h, 10 μM) was 78.57%, the Percentage of effect ([6]; 24 h, 20 μM) was 82.14% and the Percentage of effect ([6]; 48 h, 10 μM) was 87.76%. It also gave a Percentage of effect ([6]; 48 h, 20 μM) of 93.88%, a Percentage of effect ([6]; 72 h, 10 μM) of 89.80% and a Percentage of effect ([6]; 72 h, 20 μM) of 100%. For the same compound, the IC50 ([6]; 4 h) was > 20 µM, the IC50 ([6]; 24 h) was 5 µM and the IC50 ([6]; 48 h) was 4 µM. For the same compound, the IC50 ([6]; 72 h) was 2.3 µM, the IC50 [7] was > 10 µM and the IC50 ([8]; 4 h) was > 20 µM. The IC50 ([8]; 24 h) was 16.2 µM, the IC50 ([8]; 48 h) was > 20 µM and the IC50 ([8]; 72 h) was 5.9 µM. The Percentage of effect ([8]; 4 h, 1 μM) was 20%, the Percentage of effect ([8]; 4 h, 10 μM) was 23.33% and the Percentage of effect ([8]; 4 h, 20 μM) was 43.64%. For the same compound, the Percentage of effect ([8]; 24 h, 1 μM) was 24.14%, the Percentage of effect ([8]; 24 h, 10 μM) was 37.93% and the Percentage of effect ([8]; 24 h, 20 μM) was 57.69%. It also gave a Percentage of effect ([8]; 48 h, 1 μM) of 32.69%, a Percentage of effect ([8]; 48 h, 10 μM) of 36.45% and a Percentage of effect ([8]; 48 h, 20 μM) of 56.25%. For the same compound, the Percentage of effect ([8]; 72 h, 1 μM) was 39%, the Percentage of effect ([8]; 72 h, 10 μM) was 39.11% and the Percentage of effect ([8]; 72 h, 20 μM) was 70.83%. The viability at 72 h, 5 µM [9, 12] was 95 ± 9%, the viability at 72 h, 10 µM [9, 13] was 82 ± 11% and the viability at 72 h, 25 µM [9, 14] was 87 ± 39%. For the same compound, the viability at 72 h, 50 µM [9, 15] was 49 ± 9%, the IC50 at 72 h [9, 16] was 68.9 µM and the “Percentage of reduction … 72 h” value ([2]; 0.1 μM) was 43.7 ± 2.1%. For the same compound, the “Percentage of reduction … 72 h” value ([2]; 1 μM) was 56.9 ± 0.9%, the “Percentage of reduction … 72 h” value ([2]; 10 μM) was 98 ± 1.0% and the “Percentage of reduction … 72 h” value ([2]; 20 μM) was 100 ± 0.0%. For the same compound, the IC50 [2] was 0.26 µM, the viability at 72 h, 5 µM [10, 12] was 29 ± 2% and the viability at 72 h, 10 µM [10, 13] was 26 ± 3%. The viability at 72 h, 25 µM [10, 14] was 13 ± 3%, the viability at 72 h, 50 µM [10, 15] was 10 ± 2% and the IC50 at 72 h [10, 16] was 5.9 µM.
For `NC1CC1c1ccc(NC(=O)c2cc3ccccc3n2CC(=O)Nc2ccccc2)cc1` (stereo not shown) [Compound 7], the IC50 [1, 17] is given as 0.09 ± 0.01 µM, the IC50 [7] is given as > 20 µM and the “Percentage of reduction … 72 h” value ([2]; 10 μM) is given as 37.9 ± 0.0%. For the same compound, the “Percentage of reduction … 72 h” value ([2]; 20 μM) was 66.7 ± 4.2% and the IC50 [2] was > 10 µM.
In the case of `NC1CC1c1ccc(NC(=O)c2ccc(-c3ccco3)cc2)cc1` (stereo not shown) [Compound 3], the IC50 ([1]; ref 3 (SI: Fioravanti et al., J Enzyme Inhib Med Chem 2022)) is listed as 2 µM, the “Percentage of reduction … 72 h” value ([2]; 10 μM) is listed as 36.2 ± 0.9% and the “Percentage of reduction … 72 h” value ([2]; 20 μM) is listed as 37.50 ± 0.0%. For the same compound, the IC50 [2] was > 20 µM.
In the case of `N#Cc1ccc(C(=O)Nc2ccc(C3CC3N)cc2)cc1` (stereo not shown) [Compound 17, N-(4-(2-Aminocyclopropyl)phenyl)-4-cyanobenzamide Hydrochloride], the IC50 [3] is reported as 0.15 ± 0.02 µM, the ΔTm [4] is reported as “+8.5 °C” and the “Percentage of reduction … 72 h” value ([2]; 10 μM) is reported as 25.0 ± 0.0%. The “Percentage of reduction … 72 h” value ([2]; 20 μM) was 31.2 ± 6.3% and the IC50 [2] was > 20 µM.
For `NC1CC1c1ccc(NC(=O)C2CCCN2C(=O)OCc2ccccc2)cc1` (stereo not shown) [Compound 10], the IC50 [1, 17] is listed as 0.06 ± 0.01 µM, the “Percentage of reduction … 72 h” value ([2]; 10 μM) is listed as 32.8 ± 0.9% and the “Percentage of reduction … 72 h” value ([2]; 20 μM) is listed as 37.5 ± 4.2%. For the same compound, the IC50 [2] was > 20 µM.
For `NC1CC1c1ccc(NC(=O)CNC(=O)OCc2ccccc2)cc1` (stereo not shown) [Compound 9], the IC50 [1, 17] is listed as 0.3 ± 0.03 µM, the “Percentage of reduction … 72 h” value ([2]; 10 μM) is listed as 37.93 ± 1.7% and the “Percentage of reduction … 72 h” value ([2]; 20 μM) is listed as 41.7 ± 4.2%. For the same compound, the IC50 [2] was > 20 µM.
